Several values for one entry are separate records, joined by “and”; a condition that tells them apart may be missing. Equal entries are not always repeated. Values belong to the compound of their own block, whether it stands above or below them.
Test system: SYO-1 complex spheroid growth, percent test/control
Assay: Anticancer human tumor SYO-1 cell line growth inhibition [Asc];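 further: compound exposure lasted 7 days after spheroids grew 3 days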;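 on viability, T/C: 100% = DMSO vehicle control viability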
Settings: for viability, T/C: stronger effect = lower value
Protocol: Multicellular complex tumor spheroid response to apoptosis pathway targeting inhibitors Alrizomadlin, Pelcitoclax, and Dasminapant in combination with a variety of drugs and investigational agents in selected tumor cell lines
The MDM2 inhibitor alrizomadlin, the Bcl-2/Bcl-xL inhibitor pelcitoclax, and the IAPs inhibitor dasminapant were evaluated both individually and in combination with standard of care and investigational anticancer small molecules within a complex spheroid model of solid tumors. . Complex spheroids include a stromal component modeled by human endothelial cells (HUVEC) and fibroblasts modeled by human mesenchymal stem cells (MSCs). The concentration ranges selected for each drug and investigational agent were based upon clinically achievable concentrations if the clinical Cmax of the agent was known.
Compounds. The drugs and investigational agents: alrizomadlin (APG-115; NSC831270), pelcitoclax (APG-1252; NSC835773), dasminapant (APG-1387;NSC834197), TAK-243 (NSC785004), copanlisib (NSC809693), olaparib (NSC753686), talazoparib (NSC767125), cobimetinib (NSC 768068), eltanexor (KPT-8602, NSC 794443), abemaciclib (NSC 768073), sotorasib (NSC818433), adagrasib (NSC 831453), MRTX-1133 (NSC 836407), Iadademestat (ORY1001, NSC 806812), and RMC-4630 (NSC839698), were obtained from the NCI Developmental Therapeutics Program Chemical Repository. The FDA-approved anticancer drug set is available from the Developmental Therapeutics Program at https://dtp.cancer.gov/organization/dscb/obtaining/available plates.htm. […] The stock solutions were prepared in dimethyl sulfoxide (DMSO, Sigma-Aldrich, St. Louis, MO, cat. D2650) at 800-fold the tested concentration and stored at -70 degrees C prior to their use. All drugs and investigational agents were tested over a range starting from a high concentration at or near the clinical Cmax and decreasing in half-log increments. If the clinical Cmax for an agent had not been determined, the highest concentration tested was 10 microM.
The patient-derived cancer (PDC) cell lines include five colon adenocarcinomas: 186277-243-T-J2-PDC, 616215-338-R-J1-PDC, 439559-082-T-J2-PDC, 463943-066-T-J2-PDC, and 519858-162-T-J1-PDC; three pancreatic carcinomas: 323965-272-R-J2-PDC, 521955-158-R6-J3-PDC, and 521955-158-R2-J5-PDC; two uterine sarcomas: 327498-152-R-J2-PDC and 993429-296-R-J1-PDC; two rhabdomyosarcomas: 755483-174-R-J1-PDC and 772245-204-R-J1-PDC; two soft tissue sarcomas: 126254-015-R-J1-PDC and 494315-158-R-J1-PDC; two malignant fibrous histiocytomas: 317291-083-R-J1-PDC and 596521-263-R-J1-PDC; two breast carcinomas: 171881-019-R-J1-PDC and 885512-296-R-J2-PDC; and one ovarian carcinoma: 6556581-035-R-J-PDC were obtained from the NCI PDMR, (https://pdmr.cancer.gov). The established cell lines HSSY-2 synovial sarcoma (RRID:CVCL 8719), SYO-1 synovial sarcoma (RRID:CVCL_7146), MPNST malignant peripheral neural sheath tumor were obtained from the Sloan Kettering Institute. The following established cell lines were purchased from the American Type Culture Collection (ATCC, Manassas, VA), Sor the received from the NCI repository:, PANC-1 pancreatic carcinoma (CRL-1469, RRID:CVCL_0480), OVCAR-5 ovarian carcinoma (RRID:CVCL_1628), OVCAR-8 ovarian carcinoma (RRID:CVCL_1629), , MCF-7 breast carcinoma (CRL-12584, RRID:CVCL_0031), MDA-MB-231 breast carcinoma (CRL-12532, RRID:CVCL_0062), NCI-H1876 small cell lung carcinoma (CRL-5902, RRID:CVCL_1503), NCI-H510A small cell lung carcinoma (HTB-184, RRID:CVCL_1565), NCI-H1417 (CRL-5869, RRID:CVCL_1469), and NCI-H196 small cell lung carcinoma (CRL-5823, RRID:CVCL_1509). Dr. Peter Houghton (Greehey Children's Cancer Research Institute, University of Texas Health Science Center, San Antonio, TX) provided Rh-18 rhabdomyosarcoma (RRID:CVCL_1659). Pooled donor human umbilical vein endothelial cells (HUVEC, Lonza, cat. CC-2519) and human mesenchymal stem cells (hMSC, Lonza, cat. PT-2501) were purchased from Lonza (Walkersville, MD).
Cell Culture. […]

IC50 (curve of first compound, second compound 0.00949 µM): 5.02 µM
IC50 (curve of first compound, second compound 0.03 µM): 1.86 µM
IC50 (curve of first compound, second compound 0.0949 µM): 1.62 µM
IC50 (curve of first compound, second compound 0.3 µM): < 0.0316 µM
IC50 (curve of first compound, second compound 0.949 µM): < 0.0316 µM
IC50 (curve of first compound, second compound 3 µM): < 0.0316 µM
SMILES: C=C(F)C(=O)N1CCN(c2nc(OCC3CCCN3C)nc3c2CCN(c2cccc4cccc(Cl)c24)C3)CC1CC#N (stereo unspecified) + CCN1C(C(=O)NC23CCC(C(=O)O)(CC2)CC3)C(c2cccc(Cl)c2F)C2(C(=O)Nc3cc(Cl)ccc32)C12CCCCC2
viability, T/C (second compound 0.00949 µM, first compound 0.0316 µM): 101%
viability, T/C (second compound 0.00949 µM, first compound 0.1 µM): 99.9%
viability, T/C (second compound 0.00949 µM, first compound 0.316 µM): 101%
viability, T/C (second compound 0.00949 µM, first compound 1 µM): 109%
viability, T/C (second compound 0.00949 µM, first compound 3.16 µM): 83.3%
viability, T/C (second compound 0.00949 µM, first compound 10 µM): 0.4%
viability, T/C (second compound 0.03 µM, first compound 0.0316 µM): 96.9%
viability, T/C (second compound 0.03 µM, first compound 0.1 µM): 95.3%
viability, T/C (second compound 0.03 µM, first compound 0.316 µM): 101%
viability, T/C (second compound 0.03 µM, first compound 1 µM): 111%
viability, T/C (second compound 0.03 µM, first compound 3.16 µM): 6.35%
viability, T/C (second compound 0.03 µM, first compound 10 µM): 0.68%
viability, T/C (second compound 0.0949 µM, first compound 0.0316 µM): 87.1%
viability, T/C (second compound 0.0949 µM, first compound 0.1 µM): 81%
viability, T/C (second compound 0.0949 µM, first compound 0.316 µM): 83.8%
viability, T/C (second compound 0.0949 µM, first compound 1 µM): 88.2%
viability, T/C (second compound 0.0949 µM, first compound 3.16 µM): 1.01%
viability, T/C (second compound 0.0949 µM, first compound 10 µM): 0.26%
viability, T/C (second compound 0.3 µM, first compound 0.0316 µM): 31.3%
viability, T/C (second compound 0.3 µM, first compound 0.1 µM): 27.9%
viability, T/C (second compound 0.3 µM, first compound 0.316 µM): 22.7%
viability, T/C (second compound 0.3 µM, first compound 1 µM): 23.9%
viability, T/C (second compound 0.3 µM, first compound 3.16 µM): 1.47%
viability, T/C (second compound 0.3 µM, first compound 10 µM): 0.37%
viability, T/C (second compound 0.949 µM, first compound 0.0316 µM): 4.04%
viability, T/C (second compound 0.949 µM, first compound 0.1 µM): 3.25%
viability, T/C (second compound 0.949 µM, first compound 0.316 µM): 2.38%
viability, T/C (second compound 0.949 µM, first compound 1 µM): 1.49%
viability, T/C (second compound 0.949 µM, first compound 3.16 µM): 0.82%
viability, T/C (second compound 0.949 µM, first compound 10 µM): 0.26%
viability, T/C (second compound 3 µM, first compound 0.0316 µM): 2.61%
viability, T/C (second compound 3 µM, first compound 0.1 µM): 1.39%
viability, T/C (second compound 3 µM, first compound 0.316 µM): 1.16%
viability, T/C (second compound 3 µM, first compound 1 µM): 0.97%
viability, T/C (second compound 3 µM, first compound 3.16 µM): 0.49%
viability, T/C (second compound 3 µM, first compound 10 µM): 0.4%

IC50 (curve of first compound, second compound 0.01 µM): > 10 µM
IC50 (curve of first compound, second compound 0.0316 µM): > 10 µM
IC50 (curve of first compound, second compound 0.1 µM): > 10 µM
IC50 (curve of first compound, second compound 0.316 µM): > 10 µM
IC50 (curve of first compound, second compound 1 µM): > 10 µM
SMILES: C=CC(=O)N1CCN(c2nc(=O)n(-c3c(C)ccnc3C(C)C)c3nc(-c4c(O)cccc4F)c(F)cc23)C(C)C1 (stereo unspecified) + CNC(C)C(=O)NC1CN(S(=O)(=O)c2cccc(S(=O)(=O)N3CCC4CCC(C(=O)NC(c5ccccc5)c5ccccc5)N4C(=O)C(NC(=O)C(C)NC)C3)c2)CCC2CCC(C(=O)NC(c3ccccc3)c3ccccc3)N2C1=O
viability, T/C (second compound 0.01 µM, first compound 0.0316 µM): 104%
viability, T/C (second compound 0.01 µM, first compound 0.1 µM): 105%
viability, T/C (second compound 0.01 µM, first compound 0.316 µM): 101%
viability, T/C (second compound 0.01 µM, first compound 1 µM): 102%
viability, T/C (second compound 0.01 µM, first compound 3.16 µM): 90.3%
viability, T/C (second compound 0.01 µM, first compound 10 µM): 83.6%
viability, T/C (second compound 0.0316 µM, first compound 0.0316 µM): 97.4%
viability, T/C (second compound 0.0316 µM, first compound 0.1 µM): 94.5%
viability, T/C (second compound 0.0316 µM, first compound 0.316 µM): 99.4%
viability, T/C (second compound 0.0316 µM, first compound 1 µM): 97.2%
viability, T/C (second compound 0.0316 µM, first compound 3.16 µM): 87.3%
viability, T/C (second compound 0.0316 µM, first compound 10 µM): 86.2%
viability, T/C (second compound 0.1 µM, first compound 0.0316 µM): 88.3%
viability, T/C (second compound 0.1 µM, first compound 0.1 µM): 94.3%
viability, T/C (second compound 0.1 µM, first compound 0.316 µM): 100%
viability, T/C (second compound 0.1 µM, first compound 1 µM): 92.5%
viability, T/C (second compound 0.1 µM, first compound 3.16 µM): 98.1%
viability, T/C (second compound 0.1 µM, first compound 10 µM): 85.4%
viability, T/C (second compound 0.316 µM, first compound 0.0316 µM): 96.6%
viability, T/C (second compound 0.316 µM, first compound 0.1 µM): 98%
viability, T/C (second compound 0.316 µM, first compound 0.316 µM): 97.5%
viability, T/C (second compound 0.316 µM, first compound 1 µM): 93.5%
viability, T/C (second compound 0.316 µM, first compound 3.16 µM): 87.4%
viability, T/C (second compound 0.316 µM, first compound 10 µM): 89.6%
viability, T/C (second compound 1 µM, first compound 0.0316 µM): 98.1%
viability, T/C (second compound 1 µM, first compound 0.1 µM): 98.1%
viability, T/C (second compound 1 µM, first compound 0.316 µM): 93.1%
viability, T/C (second compound 1 µM, first compound 1 µM): 95.8%
viability, T/C (second compound 1 µM, first compound 3.16 µM): 93.5%
viability, T/C (second compound 1 µM, first compound 10 µM): 88%

IC50 (curve of compound): > 10 µM
SMILES: C#Cc1c(F)ccc2cc(O)cc(-c3ncc4c(N5CC6CCC(C5)N6)nc(OCC56CCCN5CC(F)C6)nc4c3F)c12 (stereo unspecified)
viability, T/C (compound 0.0316 µM): 111% and 98.5% and 108%
viability, T/C (compound 0.1 µM): 95.5% and 92.2% and 96.9%
viability, T/C (compound 0.316 µM): 108% and 95.5% and 110%
viability, T/C (compound 1 µM): 98.9% and 101% and 109%
viability, T/C (compound 3.16 µM): 111% and 117% and 105%
viability, T/C (compound 10 µM): 105% and 97.4% and 103%

IC50 (curve of compound): 5.54 µM and 5.31 µM and 5.37 µM
SMILES: C=C(F)C(=O)N1CCN(c2nc(OCC3CCCN3C)nc3c2CCN(c2cccc4cccc(Cl)c24)C3)CC1CC#N (stereo unspecified)
viability, T/C (compound 0.0316 µM): 107% and 98.8% and 99.1%
viability, T/C (compound 0.1 µM): 102% (2×) and 96.3%
viability, T/C (compound 0.316 µM): 97.5% and 101% and 100%
viability, T/C (compound 1 µM): 95.2% and 101% and 113%
viability, T/C (compound 3.16 µM): 97.3% and 90.3% and 92.2%
viability, T/C (compound 10 µM): 0.28% and 0.79% and 0.39%
